Assay results taken from patent US10342796B2, “Acrylanilide derivative, preparation method, and applications thereof in pharmacy” (Ancureall Pharmaceutical (Shanghai) Co., Ltd., priority 2015, dated 2019).
Like-named read-outs stand apart in the source and are kept apart here. Blank lines part the entries; values can stand above or below the compound they belong to.

How the values were obtained:
PC-9 tumor cells = test: In vivo tumor growth inhibition, xenograft; design: species or system Bab/c nude mice; settings: Mus musculus, po, 456 h; 25 mg/kg intragastric once daily, day 19; read-out: TGI (%) PC-9
Description: (§1) Tumor xenograft models of immunodeficient mice are an effective tool to test the antitumor activity of the compound in vivo. Generally, the effectiveness of human tumor cell xenograft is positively correlated with the clinical treatment of human tumor. Bab/c immunodeficient mouse is one of the most commonly used xenograft animals with human tumor cells. In order to test whether the present compounds can inhibit the in vivo growth of the tumor cells expressing EGFR mutantion or HER2/ErbB2 overexpression, H1975, PC-9 and NCI-N87 cell lines were used in the experiments. When H1975, PC-9 and NCI-N87 cells were in growth logarithmic phase, they were digested with pancreatin. An appropriate amount of 1×RPMI1640 culture medium (serum-free) was added to stop digestion. The cells were collected to a 50 ml centrifuge tube (Corning), and centrifuged at 1700 rm for 3 min. The supernatant was discard, then the cells were suspended with 1×RPMI1640 culture medium and count the number. […] cells/mL was prepared and then placed on ice. 5˜10×10^6 (0.2 ml) cells were inoculated subcutaneously on the right side of the back of 6˜8 week old female Bab/c nude mice (about 20 g in weight). When the tumor average volume growed to 100˜200 mm^3, the mice were randomly divide into groups (3-6 mice per group), and marked by ear pierced tags and weighted. The test compounds and the reference compound (with a purity over 99% and individual impurity not higher than 0.2%) were formulated to emulsion suspension with CM (30% polyethylene glycol 400, 0.5% Tween-80 and 2.5% propylene glycol) respectively. Intragastric administration was continued once daily at a dosage of 25 mg/kg (0.1 ml/10 g mouse). The tumor was measured 3 times per week. When the average volume of the tumor in CM control group was up to 1500 mm^3 or after administration for 30 days, the experiment was ended.
(§2) The volume of tumor (V) was calculated as V=½*a*b^2 (a represents length of tumors, b represents width of tumors). Tumor growth inhibition (TGI) was calculated as: TGI (%)=100−(VT−VT0)/(VC−VC0)*100%; where VT0 and VT are the tumor volumes of the beginning and finish days of dosed groups; and VC0 and VC are the tumor volumes of the beginning and finish days for the control group, respectively.

H1975 tumor cells = test: In vivo tumor growth inhibition, xenograft; design: species or system Bab/c nude mice; settings: Mus musculus, NCI-H1975, po, 456 h; 25 mg/kg intragastric once daily, day 19; read-out: TGI (%) H1975
Description: as §1, §2

[1] = test system: NCI-H1781 (HER2 exon 20 G776VC mutation); test: Growth inhibition GI50 in vitro (CCK8/MTT, 72 h); type: cell-based; settings: Homo sapiens
[2] = test system: HER2/ErbB2 amplified cell line N87; test: In vivo tumor growth inhibition, xenograft; design: species or system Bab/c nude mice; settings: Mus musculus, po, 456 h, 25 mg/kg intragastric once daily, day 19, read-out: TGI (%)
Description: as §1, §2

[3] = NCI-H1781, Table 16, 1000 nM to 0.03 nM serial dilution, read-out: GI50 H1781 (HER2 G776VC)

SMILES: C=CC(=O)Nc1cc(Nc2nccc(-c3cn(C)c4ccccc34)n2)c(OC)cc1N(C)CCN(C)C [AZD9291, reference compound]
inhibition in vivo at 25 mg/kg (PC-9 tumor cells): 97.2%
inhibition in vivo at 25 mg/kg (H1975 tumor cells): 98.4%
GI50 ([1]; NCI-H1781, read-out: GI50 H1781 (HER2 G776VC)): 195 nM

SMILES: C=CC(=O)Nc1cc(Nc2nccc(Nc3ccc(OCc4ccccn4)c(Cl)c3)n2)c(OC)cc1N(C)CCN(C)C [Compound 18, N-(5-(4-(3-chloro-4-(pyridin-2-methoxyl)phenylamino)pyrimidin-2-ylamino)-2-((2-(dimethylamino)ethyl)(methyl)amino)-4-methoxyl-phenyl)-acrylamide]
inhibition in vivo at 25 mg/kg (PC-9 tumor cells): 98.3%
inhibition in vivo at 25 mg/kg (H1975 tumor cells): 96.7%

SMILES: C=CC(=O)Nc1cc(Nc2nccc(-n3ccc4ccc(F)cc43)n2)c(OC)cc1N(C)CCN(C)C [Compound 63, N-(5-(4-(6-fluoro-1H-indol-1-yl)-pyrimidin-2-ylamino)-2-((2-(dimethylamino)ethyl)-methyl-amino)-4-methoxyl-phenyl)-acrylamide]
inhibition in vivo at 25 mg/kg (PC-9 tumor cells): 98.3%
inhibition in vivo at 25 mg/kg [2]: 94.7%
inhibition in vivo at 25 mg/kg (H1975 tumor cells): 98.3%

GI50 [1, 3]: 1.92 nM
SMILES: C=CC(=O)Nc1cc(Nc2nccc(-n3ccc4c(OC)cccc43)n2)c(OC)cc1N(C)CCN(C)C [Compound 99, N-(5-(4-(4-methoxyl-1H-indol-1-yl)-pyrimidin-2-ylamino)-2-(2-(dimethylamino-ethyl)-methyl-amino)-4-methoxyl-phenyl)-acrylamide]
inhibition in vivo at 25 mg/kg (PC-9 tumor cells): 95.8%
inhibition in vivo at 25 mg/kg [2]: 95.4%
inhibition in vivo at 25 mg/kg (H1975 tumor cells): 94.6%

SMILES: C=CC(=O)Nc1cc(Nc2ncnc(Nc3cccc(Br)c3)n2)c(OC)cc1N(C)CCN(C)C [Compound 115, N-(5-(4-(3-bromo-phenylamino)-[1,3,5]triazin-2-ylamino)-2-((2-dimethylamino-ethyl)-methyl-amino)-4-methoxyl-phenyl)-acrylamide]
inhibition in vivo at 25 mg/kg (PC-9 tumor cells): 97.1%
inhibition in vivo at 25 mg/kg [2]: 97.8%
inhibition in vivo at 25 mg/kg (H1975 tumor cells): 59.1%

GI50 [1, 3]: 7.32 nM
SMILES: C=CC(=O)Nc1cc(Nc2cc(Nc3cc(OC)c(Cl)cc3Cl)ncn2)c(OC)cc1N(C)CCN(C)C [Compound 136, N-(5-(6-(2,4-dichloro-5-methoxyl-phenylamino)-pyrimidin-4-ylamino)-2-((2-dimethylamino-ethyl)-methyl-amino)-4-methoxyl-phenyl)-acrylamide]
inhibition in vivo at 25 mg/kg [2]: 96.7%

SMILES: C=CC(=O)Nc1cc(Nc2cc(Nc3ccc(F)c(Cl)c3)ncn2)c(OC)cc1N(C)CCN(C)C [Compound 140, N-(5-(6-(3-chloro-4-fluoro-phenylamino)-pyrimidin-4-ylamino)-2-((2-dimethylamino-ethyl)-methyl-amino)-4-methoxyl-phenyl)-acrylamide]
inhibition in vivo at 25 mg/kg (PC-9 tumor cells): 97.9%
inhibition in vivo at 25 mg/kg (H1975 tumor cells): 98.4%

SMILES: C=CC(=O)Nc1cc(Nc2cc(-c3cn(C(C)C)c4ccccc34)ncn2)c(OC)cc1N(C)CCN(C)C [Compound 183]
inhibition in vivo at 25 mg/kg (PC-9 tumor cells): 98.8%
inhibition in vivo at 25 mg/kg [2]: 97.7%
inhibition in vivo at 25 mg/kg (H1975 tumor cells): 97.4%

SMILES: C=CC(=O)Nc1cc(Nc2cc(-c3cn(C(C)C)c4ccc(F)cc34)ncn2)c(OC)cc1N(C)CCN(C)C [Compound 191, N-(5-(6-(5-fluoro-1-isopropyl-1H-indol-3-yl)-pyrimidin-4-ylamino)-4-methoxyl-2-((2-dimethylamino-ethyl)-methyl-amino)-phenyl)-acrylamide]
inhibition in vivo at 25 mg/kg (PC-9 tumor cells): 98.8%
inhibition in vivo at 25 mg/kg [2]: 96.6%
inhibition in vivo at 25 mg/kg (H1975 tumor cells): 99.3%

GI50 [1, 3]: 1.52 nM
SMILES: C=CC(=O)Nc1cc(Nc2nccc(-n3ccc4c(OCCOC)cccc43)n2)c(OC)cc1N(C)CCN(C)C [Compound 205, N-(5-(4-(4-(2-methoxyl-ethoxyl)-1H-indol-1-yl)-pyrimidin-2-ylamino)-2-(2-(dimethylamino-ethyl)-methyl-amino)-4-methoxyl-phenyl)-acrylamide]
inhibition in vivo at 25 mg/kg (PC-9 tumor cells): 96.5%
inhibition in vivo at 25 mg/kg (H1975 tumor cells): 99.5%

GI50 [1, 3]: 19.5 nM
SMILES: C=CC(=O)Nc1cc(Nc2cc(Nc3ccc(OCC4CCOCC4)c(Cl)c3)ncn2)c(OC)cc1N(C)CCN(C)C [Compound 216, N-(5-(6-(3-chloro-4-(tetrahydropyran-4-yl-methoxyl)-phenylamino)-pyrimidin-4-ylamino)-2-((2-dimethylaminoethyl)-methyl-amino)-4-methoxyphenyl)-acrylamide]
inhibition in vivo at 25 mg/kg [2]: 97.6%

GI50 [1, 3]: 0.96 nM
SMILES: C=CC(=O)Nc1cc(Nc2cc(Nc3cc(F)c(OC)c(Cl)c3)ncn2)c(OC)cc1N(C)CCN(C)C [Compound 236, N-(5-(6-(3-chloro-5-fluoro-4-methoxyphenylamino)-pyrimidin-4-yl-amino)-2-((2-dimethylamino-ethyl)-methyl-amino)-4-methoxyl-phenyl)-acrylamide]
inhibition in vivo at 25 mg/kg [2]: 97.5%
